# Legend:
# SIRT3 [1] = biological target: T1, SIRT3 (Homo sapiens, UniProt Q9NTG7); assay: DARTS (pronase digestion, blot); assay type: biochemical; set-up: detected by blot; details: protein lysate
# T1 sequence (Q9NTG7 102-399): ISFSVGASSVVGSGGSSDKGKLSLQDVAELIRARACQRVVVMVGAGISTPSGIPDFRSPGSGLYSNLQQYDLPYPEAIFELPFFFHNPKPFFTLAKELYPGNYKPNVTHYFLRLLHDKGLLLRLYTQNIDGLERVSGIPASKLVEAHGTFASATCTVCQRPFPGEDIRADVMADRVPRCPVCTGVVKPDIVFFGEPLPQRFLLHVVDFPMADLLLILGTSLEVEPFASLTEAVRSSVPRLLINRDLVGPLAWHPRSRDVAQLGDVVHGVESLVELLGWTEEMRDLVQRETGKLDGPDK
# SIRT3 [2] = biological target: T1, SIRT3; assay: surface plasmon resonance; assay type: binding; set-up: SIRT3 protein used for SPR; PDB 4JT8 was only the docking model
compound,measurement,setting,value
O=C(/C=C/c1ccc(O)c(O)c1)c1ccc(O)c(O)c1O [okanin],DARTS protection,SIRT3 [1],okanin treatment significantly enhanced SIRT3 resistance to pronase digestion in protein lysates
same,Kd,SIRT3 [2],4.98 µM

# Reference: publication PMC12466513, “Okanin Attenuates Mitochondrial Dysfunction and Apoptosis in UVA-Induced HaCaT Cells by Mitophagy Through SIRT3 Pathway” (Antioxidants, 2025)
